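These data come from cells grown in 96-well plates and exposed to compound for 48 hours at five concentrations. GI50 is the concentration that inhibits growth by half. TGI is the concentration that stops growth completely.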
Assays:
Assay in all cases: NCI tumour cell line growth inhibition, 48 h
CCRF-CEM leukemia = system: CCRF-CEM leukemia
COLO 205 colon = system: COLO 205 colon
HL-60(TB) leukemia = system: HL-60(TB) leukemia
MOLT-4 leukemia = system: MOLT-4 leukemia
NCI-H522 lung = system: NCI-H522 lung
RPMI-8226 leukemia = system: RPMI-8226 leukemia
SF-295 CNS = system: SF-295 CNS
SN12C renal = system: SN12C renal
SNB-75 CNS = system: SNB-75 CNS
UACC-62 melanoma = system: UACC-62 melanoma

| SMILES | GI50 (CCRF-CEM leukemia) [µM] | TGI (CCRF-CEM leukemia) [µM] | GI50 (COLO 205 colon) [µM] | TGI (COLO 205 colon) [µM] | GI50 (HL-60(TB) leukemia) [µM] | TGI (HL-60(TB) leukemia) [µM] | GI50 (MOLT-4 leukemia) [µM] | TGI (MOLT-4 leukemia) [µM] | GI50 (NCI-H522 lung) [µM] | TGI (NCI-H522 lung) [µM] | GI50 (RPMI-8226 leukemia) [µM] | TGI (RPMI-8226 leukemia) [µM] | GI50 (SF-295 CNS) [µM] | TGI (SF-295 CNS) [µM] | GI50 (SN12C renal) [µM] | TGI (SN12C renal) [µM] | GI50 (SNB-75 CNS) [µM] | TGI (SNB-75 CNS) [µM] | GI50 (UACC-62 melanoma) [µM] | TGI (UACC-62 melanoma) [µM] |
| --- | --- | --- | --- | --- | --- | --- | --- | --- | --- | --- | --- | --- | --- | --- | --- | --- | --- | --- | --- | --- |
| COc1cc(/C=C2\CN(S(=O)(=O)c3ccc(C)cc3)C/C(=C\c3cc(CN4CCCCC4)c(O)c(OC)c3)C2=O)cc(CN2CCCCC2)c1O | 0.307 | 1.13 | 1.68 | 3.58 | 1.88 | 4.34 | 0.918 | 5.04 | 0.306 | 1.32 | 2.03 | 5.45 | 2.26 | 5.15 | 1.77 | 3.42 | 1.64 | 3.41 | 1.63 | 3.32 |
| NC(Cc1c[nH]c2ccccc12)C(=O)O (stereo not given) | – | > 300 | – | > 300 | – | > 300 | – | > 300 | – | > 300 | – | > 300 | – | > 300 | – | > 13.9 | – | > 300 | – | > 300 |

From PubChem BioAssay (NCI)
